Data as given in ChEMBL document CHEMBL1201862, “PubChem BioAssay data set” (2004).
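Dose response: 5 concentrations. Exposure: 48 h. Format: 96-well plates. Endpoint: linear interpolation; highest concentration if not reached. Abbreviation: GI50, concentration required for 50% inhibition of growth.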 Calls of active or inactive are those of the source. Cut-off read from the data, not from the text of the source: active = GI50 up to about 1.1 µM and inactive = higher.

Key:
Assay in all cases: DTP human tumour cell line panel, 48 h
[1] = test system: HCT-116
[2] = test system: 786-0
[3] = test system: SK-OV-3
[4] = test system: A549
[5] = test system: KM12
[6] = test system: SK-MEL-5
[7] = test system: UACC-62
[8] = test system: OVCAR-5
[9] = test system: SK-MEL-28
[10] = test system: OVCAR-3
[11] = test system: SF-268
[12] = test system: Malme-3M
[13] = test system: EKVX
[14] = test system: OVCAR-8
[15] = test system: NCI-H226
[16] = test system: SN12C
[17] = test system: M14
[18] = test system: LOX IMVI

Measured: GI50

COCN1COCN/C1=N\C#N
inactive: [1] > 100 µM | [2] > 100 µM | [3] > 100 µM | [4] > 100 µM | [5] > 100 µM | [6] > 100 µM | [7] > 100 µM | [8] > 100 µM | [9] > 100 µM | [10] > 100 µM | [11] > 100 µM | [12] > 100 µM | [13] > 100 µM | [14] > 100 µM | [15] > 100 µM | [16] > 100 µM | [17] > 100 µM

CC(Oc1ccc(OCC2CCCCC2)cc1)C(=O)NCc1ccco1 (stereo not given)
inactive: [1] 26.4 µM | [2] 34.6 µM | [3] 98.9 µM | [4] 34.9 µM | [5] 37.1 µM | [6] 15.7 µM | [7] 56 µM | [9] 43.6 µM | [10] 40.6 µM | [11] 98.9 µM | [12] 27 µM | [14] 24.9 µM | [18] 20.7 µM | [15] 28.8 µM | [16] 51.1 µM | [17] 18.7 µM

O=C1CC(c2c(-c3ccccc3)[nH]c3ccccc23)C(=O)N1 (stereo not given)
inactive: [1] > 100 µM | [2] > 100 µM | [3] > 100 µM | [4] > 100 µM | [5] > 100 µM | [6] > 100 µM | [7] 89.3 µM | [8] > 100 µM | [9] > 100 µM | [10] > 100 µM | [12] > 100 µM | [13] > 100 µM | [14] > 100 µM | [15] > 100 µM | [17] > 100 µM

CN1C(=O)N(C)C(N2CCCC2)c2c1nc1ccccn1c2=O (stereo not given)
inactive: [1] 60.4 µM | [2] 97.9 µM | [3] 78.5 µM | [4] > 100 µM | [5] > 100 µM | [7] 67 µM | [9] > 100 µM | [10] 77.3 µM | [11] > 100 µM | [12] > 100 µM | [13] 43.3 µM | [14] > 100 µM | [18] 36.5 µM | [15] > 100 µM | [16] 54.3 µM | [17] 68.9 µM

COC(=O)C(=O)Cc1nc2ccccc2s1
inactive: [1] > 100 µM | [2] > 100 µM | [3] > 100 µM | [4] > 100 µM | [6] > 100 µM | [7] > 100 µM | [8] > 100 µM | [9] > 100 µM | [10] > 100 µM | [11] > 100 µM | [12] > 100 µM | [13] > 100 µM | [14] > 100 µM | [18] > 100 µM | [15] > 100 µM | [16] > 100 µM | [17] > 100 µM

CCSC1=N/C(=C\c2ccccc2O)C(Nc2ccc(C)cc2)=N1
inactive: [1] 39.1 µM | [2] 91.6 µM | [3] 42.7 µM | [4] 47.4 µM | [5] 24.5 µM | [6] 30.2 µM | [7] > 100 µM | [8] > 100 µM | [9] 51.1 µM | [10] 22.4 µM | [11] 71.8 µM | [12] 33.3 µM | [13] > 100 µM | [14] 80.4 µM | [18] > 100 µM | [15] 50.5 µM | [16] 66.7 µM | [17] 48.8 µM

COC(=O)C(=O)C(C(=O)C=C(C)C)C(=O)C(=O)Nc1cccc(C(C)=O)c1 (stereo not given)
inactive: [1] > 100 µM | [2] > 100 µM | [3] > 100 µM | [4] > 100 µM | [5] > 100 µM | [6] > 100 µM | [7] > 100 µM | [8] > 100 µM | [9] > 100 µM | [10] > 100 µM | [11] > 100 µM | [12] > 100 µM | [13] > 100 µM | [14] > 100 µM | [18] > 100 µM | [15] > 100 µM | [16] > 100 µM | [17] > 100 µM

Cc1ccc(S(=O)(=O)NC(C)C(=O)O)cc1 (stereo not given)
inactive: [2] > 100 µM | [3] > 100 µM | [4] > 100 µM | [5] > 100 µM | [6] > 100 µM | [7] > 100 µM | [8] > 100 µM | [9] > 100 µM | [10] > 100 µM | [11] > 100 µM | [12] > 100 µM | [13] > 100 µM | [14] > 100 µM | [18] > 100 µM | [15] > 100 µM | [16] > 100 µM | [17] > 100 µM

Cc1c(/C=N/NS(=O)(=O)c2ccccc2)no[n+]1[O-]
inactive: [1] > 100 µM | [2] > 100 µM | [3] > 100 µM | [4] > 100 µM | [5] > 100 µM | [6] > 100 µM | [7] > 100 µM | [8] > 100 µM | [9] > 100 µM | [10] > 100 µM | [11] > 100 µM | [12] > 100 µM | [13] > 100 µM | [14] > 100 µM | [16] > 100 µM | [17] > 100 µM

CC(CCCOC(c1ccccc1)(c1ccccc1)c1ccccc1)OC(=O)Nc1cc([N+](=O)[O-])cc([N+](=O)[O-])c1 (stereo not given)
inactive: [1] 33.9 µM | [2] 28.2 µM | [3] 14.8 µM | [4] 31.6 µM | [5] 32.1 µM | [6] 22.8 µM | [7] 16.9 µM | [9] 28.2 µM | [10] 33.3 µM | [11] 35.5 µM | [12] 27.6 µM | [13] 32 µM | [14] 33.5 µM | [18] 29.9 µM | [16] 41.5 µM | [17] 34.9 µM

O=C1C=CC(S(=O)(=O)C2=C/C(=C/Nc3ccc(Cl)cc3)C(=O)C=C2)=C/C1=C/Nc1ccc(Cl)cc1
inactive: [1] > 100 µM | [2] > 100 µM | [3] > 100 µM | [4] > 100 µM | [5] > 100 µM | [6] > 100 µM | [7] > 100 µM | [8] > 100 µM | [9] > 100 µM | [10] > 100 µM | [11] > 100 µM | [12] > 100 µM | [13] > 100 µM | [14] > 100 µM | [18] > 100 µM | [15] > 100 µM | [16] > 100 µM | [17] > 100 µM

FC(F)(F)C12C34C=CC5(CCC6(C=CC1(CC3)O6)C52C(F)(F)F)O4 (stereo not given)
inactive: [1] > 100 µM | [2] > 100 µM | [3] > 100 µM | [4] > 100 µM | [5] > 100 µM | [8] > 100 µM | [9] > 100 µM | [10] > 100 µM | [11] > 100 µM | [12] > 100 µM | [13] > 100 µM | [14] > 100 µM | [18] > 100 µM | [15] > 100 µM | [16] > 100 µM

Cn1c(N)[n+](C(=O)OCc2ccccc2)c(=O)c2c1ncn2C(=O)OCc1ccccc1
inactive: [1] 52.2 µM | [2] 30.1 µM | [3] 28.9 µM | [4] 73.1 µM | [5] > 100 µM | [6] > 100 µM | [7] > 100 µM | [8] > 100 µM | [9] > 100 µM | [10] > 100 µM | [11] 28.1 µM | [12] > 100 µM | [13] 89.5 µM | [14] > 100 µM | [18] > 100 µM | [15] 18 µM | [16] > 100 µM | [17] 50.9 µM

CC(=O)OC[C@]1(C)CCCC2(C)C1CCC1C=C(C)[C@H]3CCC12C3 (stereo not given in full)
inactive: [1] 47.4 µM | [2] 66.2 µM | [3] 44.1 µM | [4] 65.2 µM | [5] 52.6 µM | [6] > 100 µM | [7] 56.9 µM | [8] > 100 µM | [9] 60.5 µM | [10] 61.4 µM | [11] 37.8 µM | [12] > 100 µM | [14] > 100 µM | [18] 47.5 µM | [15] > 100 µM | [16] 40.3 µM | [17] 35.2 µM

COc1cc2ccc3c4cc(OC)c(OCc5ccccc5)cc4cnc3c2cc1OC
inactive: [2] > 100 µM | [3] > 100 µM | [4] > 100 µM | [5] > 100 µM | [6] > 100 µM | [7] > 100 µM | [8] > 100 µM | [9] > 100 µM | [10] > 100 µM | [11] > 100 µM | [12] > 100 µM | [13] > 100 µM | [14] > 100 µM | [16] > 100 µM | [17] > 100 µM

N#C/N=C(/N)NCc1ccccc1
inactive: [1] > 100 µM | [2] > 100 µM | [3] > 100 µM | [4] > 100 µM | [5] > 100 µM | [6] > 100 µM | [8] > 100 µM | [9] > 100 µM | [10] > 100 µM | [11] > 100 µM | [12] > 100 µM | [14] > 100 µM | [18] > 100 µM | [15] > 100 µM | [16] > 100 µM | [17] > 100 µM
